Assay results from paper PMC8617063 (Nature Communications, 2021).
Where two headings read alike, the source gives them in different places. Ends that are not written are not given here.

Tests used:
[1] = biological target: thrombin (Homo sapiens, UniProt P00734); experiment: biochemical
[2] = in vivo, cited from earlier work
[3] = system: saphenous vein bleeding; conditions: rat, in vivo
[4] = system: ear vein bleeding; conditions: pig, in vivo
[5] = system: tail bleeding; conditions: rat, in vivo; for RT50 for bleeding: iv
[6] = biological target: α-thrombin (UniProt P00734)
[7] = biological target: α-thrombin (UniProt P00734); experiment: enzyme inhibition (thrombin amidolytic activity on chromogenic substrate S2238); 0.83 nM thrombin, varying concentrations of peptide, 100 µM S2238 (100-400 µM for ultravariegin); 50 mM Tris pH 7.4, 100 mM NaCl, 1 mg/ml BSA, room temperature; tight-binding fit gives apparent Ki', Ki from Ki' for competitive inhibition; for UV011 Ki = IC50 (non-competitive inhibition assumed)

Row | Compound | Ki ([1]; Ki (pM)) [pM] | Sephaneous vein bleeding [3] [min] | bleeding time [4] [min] | Tail bleeding [5] [min] | RT50 for bleeding [5] | also measured
1 | SDEAVRAIPKMYSTAPPGDFETIPDDAIEEREMKAR [DAA34688.1 repeat 1] | 43.2 ± 8 | – | – | – | – | –
2 | CC[C@H](C)[C@H](NC(=O)[C@H](CCC(=O)O)NC(=O)[C@H](CCC(=O)O)NC(=O)[C@H](Cc1ccccc1)NC(=O)[C@H](CC(=O)O)NC(=O)CNC(=O)[C@H](CC(N)=O)NC(=O)CNC(=O)CNC(=O)CNC(=O)CNC(=O)[C@@H]1CCCN1C(=O)[C@H](CCCNC(=N)N)NC(=O)[C@@H]1CCCN1C(=O)[C@H](N)Cc1ccccc1)C(=O)N1CCC[C@H]1C(=O)N[C@@H](CCC(=O)O)C(=O)N[C@@H](CCC(=O)O)C(=O)N[C@@H](Cc1ccc(O)cc1)C(=O)N[C@@H](CC(C)C)C(=O)O [Bivalirudin, reference compound] | – | 4.131 | 45 | 20.5 | 4.0 mg/kg/h | half-life [2]: 25 min; plasma concentration [2]: around 2.7 µM; tail bleeding time [5]: maximal bleeding
3 | CC[C@H](C)[C@H](NC(=O)[C@H](C)NC(=O)[C@H](CCC(=O)O)NC(=O)[C@H](Cc1ccccc1)NC(=O)[C@H](CC(=O)O)NC(=O)[C@H](Cc1ccccc1)NC(=O)[C@@H]1CCCN1C(=O)[C@@H]1CCCN1C(=O)[C@H](C)NC(=O)[C@@H](NC(=O)[C@H](CCCCN)NC(=O)[C@H](Cc1cnc[nH]1)NC(=O)[C@H](CCSC)NC(=O)[C@H](CCCCN)NC(=O)[C@@H]1CCCN1C(=O)[C@H](CCC(=O)O)NC(=O)[C@H](C)NC(=O)[C@@H](NC(=O)[C@H](CC(=O)O)NC(=O)CNC(=O)[C@H](CCC(N)=O)NC(=O)[C@H](CC(=O)O)NC(=O)[C@@H](N)CO)C(C)C)[C@@H](C)O)C(=O)N1CCC[C@H]1C(=O)N[C@@H](CCC(=O)O)C(=O)N[C@@H](CCC(=O)O)C(=O)N[C@@H](Cc1ccc(O)cc1)C(=O)N[C@@H](CC(C)C)C(=O)N[C@@H](CC(=O)O)C(=O)N[C@@H](CC(=O)O)C(=O)N[C@@H](CCC(=O)O)C(=O)N[C@@H](CO)C(=O)O [Variegin] | – | 2.613 | 7.7 ± 2.6 | 8 | 5.3 mg/kg | average plasma concentration [2]: ~ 30 nM; half-life [2]: 52.3 ± 4.4 min; volume of distribution ([2]; pig): around 750 ml/kg; bleeding time ([4]; iv, 1 mg/kg): 10.3 min; Bleeding, Response time [5]: 60 min; tail bleeding time [5]: ~ 30 min
4 | SDEAVRAIPKMYSTAPPGDFEEIPDDAIEE [Ultravariegin] | 4.02 | 2.252 | 6.2 ± 1.3 | 7.5 | 2.0 mg/kg | Ki ([1]; Ki, y-intercept of line fitted to Ki′ = Ki (1 + S/Km)): 4.2 ± 0.3 pM
5 | SDEAVRAIPKMYSTAPPGDFETIPDDAIEE [DAA34688.1 repeat 1C] | 6.5 ± 1.3 | – | – | – | – | –
6 | Bivalirudin (peptide) | – | – | – | – | – | Ki [6]: 1.78 nM
7 | SDEAVRAIPKMYSTAPPGDFETIPDDAIEER [DAA34688.1 repeat 1B] | 20.5 ± 4.7 | – | – | – | – | –
8 | SGGHQTAVPKISKQGLGGDFEEIPSDEIIE [Avathrin, reference compound] | 624 ± 86 | – | – | – | – | –
9 | Ultravariegin (peptide) | – | – | – | – | – | Ki [7]: 0.004 nM
10 | MYSTAPPGDFEEIPDDAIEE [UV011] | 1660 ± 759 | – | – | – | – | –
